Experimental data from patent USRE42890E1, “Furazanobenzimidazoles” (Basilea Pharmaceutica AG, priority 2003, dated 2011).
Where two headings read alike, the source gives them in different places.

Tests used:
Jurkat = test: MTS proliferation assay, Jurkat; type: cell-based, human; details: 72 h incubation, read-out: MTS proliferation assay IC 50 Jurkat
Procedure, shortened: (§1)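 Absorbance at 492 nm after 3 h with MTS reagent gave proliferation. This followed 72 h compound exposure (final 0.3, 1, 3, 10 μM) at 37 °C and 7.5% CO2. Cells had been plated 24 h earlier in complete RPMI-1640 with 5% or 10% FCS.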

Jily = test: MTS proliferation assay, Jily; type: cell-based; details: 72 h incubation, read-out: MTS proliferation assay IC 50 Jily
Procedure, shortened: (§2)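 Antiproliferative read-out by MTS (3 h, A492) after 72 h compound exposure at final 0.3–10 μM (four concentrations). Cells were plated 24 h earlier in RPMI-1640 containing 5% or 10% FCS, cultured at 37 °C with 7.5% CO2.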

HT1080 = test: MTS proliferation assay, HT1080; type: cell-based, human; details: HT1080, 72 h incubation, read-out: MTS proliferation assay IC 50 HT1080
Procedure, shortened: as §1

HeLa = test: MTS proliferation assay, HeLa; type: cell-based, human; details: 72 h incubation, read-out: MTS proliferation assay IC 50 HeLa
Procedure, shortened: as §1

MRC5 = test: MTS proliferation assay, MRC5; type: cell-based; details: MRC5, 72 h incubation, read-out: MTS proliferation assay IC 50 MRC5
Procedure, shortened: as §2

[1] = test system: adherent cells or suspension cells; test: Hoechst 33342 nuclear staining (fraction of apoptotic nuclei); type: cell-based; parameters: key: 0 relating to no activity; 1 relating to weak activity comprising less than 70% of the cells; score 2 relating to strong activity comprising more than 70% of the cells

IC50 (Jurkat) | SMILES | IC50 (Jily) | Hoechst 33342 nuclear staining score ([1]; H460, conc 0.01 μm) | Hoechst 33342 nuclear staining score ([1]; H460, conc 0.1 μm) | Hoechst 33342 nuclear staining score ([1]; H460, conc 1 μm) | Hoechst 33342 nuclear staining score ([1]; HeLa, conc 0.01 μm) | Hoechst 33342 nuclear staining score ([1]; HeLa, conc 0.1 μm) | Hoechst 33342 nuclear staining score ([1]; HeLa, conc 1 μm) | Hoechst 33342 nuclear staining score ([1]; Jily, conc 0.01 μm) | Hoechst 33342 nuclear staining score ([1]; Jily, conc 0.1 μm) | Hoechst 33342 nuclear staining score ([1]; Jily, conc 1 μm) | Hoechst 33342 nuclear staining score ([1]; Jurkat, conc 0.01 μm) | Hoechst 33342 nuclear staining score ([1]; Jurkat, conc 0.1 μm) | Hoechst 33342 nuclear staining score ([1]; Jurkat, conc 1 μm) | Hoechst 33342 nuclear staining score ([1]; MRC5, conc 0.01 μm) | Hoechst 33342 nuclear staining score ([1]; MRC5, conc 0.1 μm) | Hoechst 33342 nuclear staining score ([1]; MRC5, conc 1 μm) | Hoechst 33342 nuclear staining score ([1]; PBLs, conc 0.01 μm) | Hoechst 33342 nuclear staining score ([1]; PBLs, conc 0.1 μm) | Hoechst 33342 nuclear staining score ([1]; PBLs, conc 1 μm) | also measured
< 10 nM | Nc1nonc1-c1nc2ccccc2n1CC(=O)c1ccc(Cl)nc1 [Example 70] | < 10 nM | 1 (1 relating to weak activity comprising less than 70% of the cells) | 2 (score 2 relating to strong activity comprising more than 70% of the cells) | 2 (score 2 relating to strong activity comprising more than 70% of the cells) | 0 | 2 (score 2 relating to strong activity comprising more than 70% of the cells) | 2 (score 2 relating to strong activity comprising more than 70% of the cells) | 2 (score 2 relating to strong activity comprising more than 70% of the cells) | 2 (score 2 relating to strong activity comprising more than 70% of the cells) | 2 (score 2 relating to strong activity comprising more than 70% of the cells) | 2 (score 2 relating to strong activity comprising more than 70% of the cells) | 2 (score 2 relating to strong activity comprising more than 70% of the cells) | 2 (score 2 relating to strong activity comprising more than 70% of the cells) | 1 (1 relating to weak activity comprising less than 70% of the cells) | 2 (score 2 relating to strong activity comprising more than 70% of the cells) | 2 (score 2 relating to strong activity comprising more than 70% of the cells) | 0 | 0 | 0 | IC50 (HT1080): < 10 nM; IC50 (HeLa): < 10 nM; IC50 (MRC5): < 10 nM
– | COc1cc(C(=O)Cn2c(-c3nonc3N)nc3ccccc32)ccc1O [Example 74, 4-[1-(3-Methoxy-4-hydroxyphenacyl)-1H-benzimidazol-2-yl]-furazan-3-yl-amine] | 100 to 1000 nM | 0 | 0 | 2 (score 2 relating to strong activity comprising more than 70% of the cells) | 0 | 0 | 2 (score 2 relating to strong activity comprising more than 70% of the cells) | 0 | 0 | 2 (score 2 relating to strong activity comprising more than 70% of the cells) | 0 | 0 | 2 (score 2 relating to strong activity comprising more than 70% of the cells) | 0 | 0 | 1 (1 relating to weak activity comprising less than 70% of the cells) | 0 | 0 | 0 | IC50 (Jurkat; Homo sapiens): 100 to 1000 nM; IC50 (HT1080; Homo sapiens, HT-1080): 100 to 1000 nM; IC50 (HeLa; Homo sapiens): 100 to 1000 nM; IC50 (MRC5; Homo sapiens): 100 to 1000 nM
– | Nc1nonc1-c1nc2ccccc2n1COc1ccc(F)cc1 [Example 8, 4-[1-(4-Fluorophenoxymethyl)-1H-benzimidazol-2-yl]-furazan-3-ylamine] | 100 to 1000 nM | 0 | 0 | 0 | 0 | 0 | 1 (1 relating to weak activity comprising less than 70% of the cells) | 0 | 0 | 0 | 0 | 0 | 1 (1 relating to weak activity comprising less than 70% of the cells) | 0 | 0 | 0 | 0 | 0 | 0 | IC50 (Jurkat; Homo sapiens): 100 to 1000 nM; IC50 (HT1080; Homo sapiens, HT-1080): 100 to 1000 nM; IC50 (HeLa; Homo sapiens): 100 to 1000 nM; IC50 (MRC5; Homo sapiens): 100 to 1000 nM
– | Nc1cc(C(=O)Cn2c(-c3nonc3N)nc3ccccc32)ccc1Cl [Example 14, 4-[1-(3-Amino-4-chlorophenacyl)-1H-benzimidazol-2-yl]-furazan-3-ylamine] | 10 to 100 nM | 0 | 2 (score 2 relating to strong activity comprising more than 70% of the cells) | 2 (score 2 relating to strong activity comprising more than 70% of the cells) | 0 | 1 (1 relating to weak activity comprising less than 70% of the cells) | 2 (score 2 relating to strong activity comprising more than 70% of the cells) | 0 | 2 (score 2 relating to strong activity comprising more than 70% of the cells) | 2 (score 2 relating to strong activity comprising more than 70% of the cells) | 0 | 2 (score 2 relating to strong activity comprising more than 70% of the cells) | 2 (score 2 relating to strong activity comprising more than 70% of the cells) | 0 | 1 (1 relating to weak activity comprising less than 70% of the cells) | 2 (score 2 relating to strong activity comprising more than 70% of the cells) | 0 | 0 | 0 | IC50 (Jurkat; Homo sapiens): 10 to 100 nM; IC50 (HT1080; Homo sapiens, HT-1080): 10 to 100 nM; IC50 (HeLa; Homo sapiens): 10 to 100 nM; IC50 (MRC5; Homo sapiens): 10 to 100 nM
10 to 100 nM | N#CCCNc1nonc1-c1nc2ccccc2n1CC(=O)c1ccc([N+](=O)[O-])cc1 [Example 57] | 10 to 100 nM | 0 | 0 | 0 | 0 | 0 | 2 (score 2 relating to strong activity comprising more than 70% of the cells) | 0 | 0 | 2 (score 2 relating to strong activity comprising more than 70% of the cells) | 0 | 0 | 2 (score 2 relating to strong activity comprising more than 70% of the cells) | 0 | 0 | 2 (score 2 relating to strong activity comprising more than 70% of the cells) | 0 | 0 | 0 | IC50 (HT1080): 100 to 1000 nM; IC50 (HeLa): 100 to 1000 nM; IC50 (MRC5): 100 to 1000 nM
100 to 1000 nM | COc1ccc(OCn2c(-c3nonc3N)nc3ccccc32)cc1 [Example 90] | 100 to 1000 nM | – | – | – | 0 | 0 | 1 (1 relating to weak activity comprising less than 70% of the cells) | 0 | 0 | 1 (1 relating to weak activity comprising less than 70% of the cells) | 0 | 0 | 2 (score 2 relating to strong activity comprising more than 70% of the cells) | 0 | 0 | 1 (1 relating to weak activity comprising less than 70% of the cells) | 0 | 0 | 0 | IC50 (HT1080): 100 to 1000 nM; IC50 (HeLa): 100 to 1000 nM; IC50 (MRC5): 100 to 1000 nM
